Columns and labels:
Assay type in all cases: in vivo
[1] = system: redroot pigweed (Amaranthus retroflexus, AMARE); assay: Pre-emerge test, greenhouse herbicide activity screening; settings: for Pre-emerge Herbicidal Activity AMARE: phytotoxicity rating 0-100, 14 days after application; for phytotoxicity rating AMARE: pre-emerge, 14 days after application, rating scale 0-100
Summary of the method: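 Compounds in acetone were track-sprayed at 15-1000 g ai/ha (187 l/ha) on sandy loam pots: pre-emerge one day after seeding, post-emerge at 2-3 leaf stage with 0.25% v/v non-ionic surfactant. Phytotoxicity was rated 14 days later on a 0 (no damage) to 100 (complete death) scale.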

[2] = system: barnyardgrass (Echinochloa crus-galli, ECHCG); assay: as above; settings: for Pre-emerge Herbicidal Activity ECHCG: phytotoxicity rating 0-100, 14 days after application; for phytotoxicity rating ECHCG: pre-emerge, 14 days after application, rating scale 0-100
Summary of the method: (§1)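 Compounds in acetone were track-sprayed at 15–1000 g ai/ha: pre-emergence onto soil sown the previous day, then top-watered to incorporate and later bottom-watered; post-emergence onto 2–3 leaf plants with 0.25% v/v surfactant, bottom-watered only. Ratings on a 0–100 phytotoxicity scale were taken at day 14.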

[3] = system: green foxtail (Setaria viridis, SETVI); assay: as above; settings: for Pre-emerge Herbicidal Activity SETVI: phytotoxicity rating 0-100, 14 days after application; for phytotoxicity rating SETVI: pre-emerge, 14 days after application, rating scale 0-100
Summary of the method: as §1

[4] = system: ivyleaf morningglory (Ipomoea hederacea, IPOHE); assay: as above; settings: for Pre-emerge Herbicidal Activity IPOHE: phytotoxicity rating 0-100, 14 days after application; for phytotoxicity rating IPOHE: pre-emerge, 14 days after application, rating scale 0-100
Summary of the method: as §1

[5] = system: johnsongrass (Sorghum halepense, SORHA); assay: as above; settings: for Pre-emerge Herbicidal Activity SORHA: phytotoxicity rating 0-100, 14 days after application; for phytotoxicity rating SORHA: pre-emerge, 14 days after application, rating scale 0-100
Summary of the method: as §1

[6] = system: lambsquarters (Chenopodium album, CHEAL); assay: as above; settings: for Pre-emerge Herbicidal Activity CHEAL: phytotoxicity rating 0-100, 14 days after application; for phytotoxicity rating CHEAL: pre-emerge, 14 days after application, rating scale 0-100
Summary of the method: as §1

[7] = system: large crabgrass (Digitaria sanguinalis, DIGSA); assay: as above; settings: for Pre-emerge Herbicidal Activity DIGSA: phytotoxicity rating 0-100, 14 days after application; for phytotoxicity rating DIGSA: pre-emerge, 14 days after application, rating scale 0-100
Summary of the method: as §1

[8] = system: sicklepod (Cassia obtusifolia, CASOB); assay: as above; settings: for Pre-emerge Herbicidal Activity CASOB: phytotoxicity rating 0-100, 14 days after application; for phytotoxicity rating CASOB: pre-emerge, 14 days after application, rating scale 0-100
Summary of the method: as §1

[9] = system: velvetleaf (Abutilon theophrasti, ABUTH); assay: as above; settings: for Pre-emerge Herbicidal Activity ABUTH: phytotoxicity rating 0-100, 14 days after application; for phytotoxicity rating ABUTH: pre-emerge, 14 days after application, rating scale 0-100
Summary of the method: as §1

[10] = system: field corn (Zea mays L., var. Dekalb 535, CORN); assay: Pre-emerge test, crop safety; settings: for Pre-emerge Herbicidal Activity CORN: crop damage rating 0-100, 14 days after application; for phytotoxicity rating CORN: pre-emerge, 14 days after application, rating scale 0-100
Summary of the method: (§2)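 Plants grown in 10 cm pots of sandy loam mix received acetone-dissolved compounds through a moving flat-fan nozzle. Doses ranged from 15 to 1000 g ai/ha. Pre-emerge pots were seeded one day earlier, post-emerge pots 8–21 days earlier. Fourteen days on, each pot was graded 0–100 for damage.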

[11] = system: upland rice (Oryza sp., var. Tebonnet, RICE); assay: Pre-emerge test, crop safety; settings: for Pre-emerge Herbicidal Activity RICE: crop damage rating 0-100, 14 days after application; for phytotoxicity rating RICE: pre-emerge, 14 days after application, rating scale 0-100
Summary of the method: as §2

[12] = system: barnyardgrass (Echinochloa crus-galli, ECHCG); assay: Post-emerge test, greenhouse herbicide activity screening; settings: post-emerge, 14 days after application, rating scale 0-100
Summary of the method: (§3)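 Each test used a mechanized track sprayer delivering 187 l/ha of acetone solution at 15–1000 g ai/ha. Post-emerge foliage at 2–3 leaves was treated with added 0.25% v/v non-ionic surfactant and bottom-watered only. Injury was assessed on day 14, where 100 means total kill.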

[13] = system: green foxtail (Setaria viridis, SETVI); assay: as above; settings: post-emerge, 14 days after application, rating scale 0-100
Summary of the method: as §3

[14] = system: ivyleaf morningglory (Ipomoea hederacea, IPOHE); assay: as above; settings: post-emerge, 14 days after application, rating scale 0-100
Summary of the method: as §3

[15] = system: johnsongrass (Sorghum halepense, SORHA); assay: as above; settings: post-emerge, 14 days after application, rating scale 0-100
Summary of the method: as §3

[16] = system: large crabgrass (Digitaria sanguinalis, DIGSA); assay: as above; settings: post-emerge, 14 days after application, rating scale 0-100
Summary of the method: as §3

[17] = system: redroot pigweed (Amaranthus retroflexus, AMARE); assay: as above; settings: post-emerge, 14 days after application
Summary of the method: as §3

[18] = system: sicklepod (Cassia obtusifolia, CASOB); assay: as above; settings: post-emerge, 14 days after application, rating scale 0-100
Summary of the method: as §3

[19] = system: velvetleaf (Abutilon theophrasti, ABUTH); assay: as above; settings: post-emerge, 14 days after application, rating scale 0-100
Summary of the method: as §3

[20] = system: field corn (Zea mays L., var. Dekalb 535, CORN); assay: Post-emerge test, crop safety; settings: post-emerge, 14 days after application, rating scale 0-100
Summary of the method: (§4)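 Rating: 0–100 visual injury, 14 DAA. Application: acetone, 187 l/ha, 15–1000 g ai/ha, flat-fan track sprayer with nozzle 40–45 cm above soil or canopy. Post-emerge runs used 0.25% v/v surfactant on 2–3 leaf plants.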

[21] = system: upland rice (Oryza sp., var. Tebonnet, RICE); assay: Post-emerge test, crop safety; settings: post-emerge, 14 days after application, rating scale 0-100
Summary of the method: as §4

[22] = 63 g ai/ha, rating scale 0-100 (0 no damage, 100 complete death)
[23] = 250 g ai/ha, rating scale 0-100

CCOC(=O)C(C)Oc1c(Cl)cc(F)c(-n2c(=O)cc(C(F)(F)F)n(C)c2=O)c1NC(=O)c1ccc2ccccc2c1 (stereo not drawn) [2-191]
Pre-emerge Herbicidal Activity AMARE ([1]; 63 g ai/ha): 100 | Pre-emerge Herbicidal Activity AMARE ([1]; 250 g ai/ha): 100 | Pre-emerge Herbicidal Activity ECHCG ([2]; 63 g ai/ha): 0 | Pre-emerge Herbicidal Activity ECHCG ([2]; 250 g ai/ha): 10 | Pre-emerge Herbicidal Activity SETVI ([3]; 63 g ai/ha): 40 | Pre-emerge Herbicidal Activity SETVI ([3]; 250 g ai/ha): 80 | Pre-emerge Herbicidal Activity IPOHE ([4]; 63 g ai/ha): 10 | Pre-emerge Herbicidal Activity IPOHE ([4]; 250 g ai/ha): 40 | Pre-emerge Herbicidal Activity SORHA ([5]; 63 g ai/ha): 0 | Pre-emerge Herbicidal Activity SORHA ([5]; 250 g ai/ha): 50 | Pre-emerge Herbicidal Activity CHEAL ([6]; 63 g ai/ha): 100 | Pre-emerge Herbicidal Activity CHEAL ([6]; 250 g ai/ha): 100 | Pre-emerge Herbicidal Activity DIGSA ([7]; 63 g ai/ha): 0 | Pre-emerge Herbicidal Activity DIGSA ([7]; 250 g ai/ha): 70 | Pre-emerge Herbicidal Activity CASOB ([8]; 63 g ai/ha): 10 | Pre-emerge Herbicidal Activity CASOB ([8]; 250 g ai/ha): 30 | Pre-emerge Herbicidal Activity ABUTH ([9]; 63 g ai/ha): 80 | Pre-emerge Herbicidal Activity ABUTH ([9]; 250 g ai/ha): 100 | Pre-emerge Herbicidal Activity CORN ([10]; 63 g ai/ha): 0 | Pre-emerge Herbicidal Activity CORN ([10]; 250 g ai/ha): 0 | Pre-emerge Herbicidal Activity RICE ([11]; 63 g ai/ha): 10 | Pre-emerge Herbicidal Activity RICE ([11]; 250 g ai/ha): 20 | phytotoxicity rating ECHCG ([12]; 63 g ai/ha): 0 | phytotoxicity rating ECHCG ([12]; 250 g ai/ha): 0 | phytotoxicity rating SETVI ([13]; 63 g ai/ha): 0 | phytotoxicity rating SETVI ([13]; 250 g ai/ha): 10 | phytotoxicity rating IPOHE ([14]; 63 g ai/ha): 80 | phytotoxicity rating IPOHE ([14]; 250 g ai/ha): 100 | phytotoxicity rating SORHA ([15]; 63 g ai/ha): 0 | phytotoxicity rating SORHA ([15]; 250 g ai/ha): 0 | phytotoxicity rating DIGSA ([16]; 63 g ai/ha): 0 | phytotoxicity rating DIGSA ([16]; 250 g ai/ha): 0 | phytotoxicity rating AMARE [17, 22]: 40 | phytotoxicity rating AMARE [17, 23]: 90 | phytotoxicity rating CASOB ([18]; 63 g ai/ha): 30 | phytotoxicity rating CASOB ([18]; 250 g ai/ha): 80 | phytotoxicity rating ABUTH ([19]; 63 g ai/ha): 70 | phytotoxicity rating ABUTH ([19]; 250 g ai/ha): 90 | phytotoxicity rating CORN (crop damage) ([20]; 63 g ai/ha): 10 | phytotoxicity rating CORN (crop damage) ([20]; 250 g ai/ha): 20 | phytotoxicity rating RICE (crop damage) ([21]; 63 g ai/ha): 10 | phytotoxicity rating RICE (crop damage) ([21]; 250 g ai/ha): 20

COc1c(Cl)cc(F)c(-n2c(=O)cc(C(F)(F)F)n(C)c2=O)c1NN=CC(C)c1ccccc1 (stereo not drawn) [15-17]
phytotoxicity rating AMARE ([1]; 63 g ai/ha): 100 | phytotoxicity rating AMARE ([1]; 250 g ai/ha): 100 | phytotoxicity rating ECHCG ([2]; 63 g ai/ha): 100 | phytotoxicity rating ECHCG ([2]; 250 g ai/ha): 100 | phytotoxicity rating SETVI ([3]; 63 g ai/ha): 100 | phytotoxicity rating SETVI ([3]; 250 g ai/ha): 100 | phytotoxicity rating IPOHE ([4]; 63 g ai/ha): 100 | phytotoxicity rating IPOHE ([4]; 250 g ai/ha): 100 | phytotoxicity rating SORHA ([5]; 63 g ai/ha): 100 | phytotoxicity rating SORHA ([5]; 250 g ai/ha): 100 | phytotoxicity rating CHEAL ([6]; 63 g ai/ha): 100 | phytotoxicity rating CHEAL ([6]; 250 g ai/ha): 100 | phytotoxicity rating DIGSA ([7]; 63 g ai/ha): 100 | phytotoxicity rating DIGSA ([7]; 250 g ai/ha): 100 | phytotoxicity rating CASOB ([8]; 63 g ai/ha): 100 | phytotoxicity rating CASOB ([8]; 250 g ai/ha): 100 | phytotoxicity rating ABUTH ([9]; 63 g ai/ha): 100 | phytotoxicity rating ABUTH ([9]; 250 g ai/ha): 100 | phytotoxicity rating CORN ([10]; 63 g ai/ha): 80 | phytotoxicity rating CORN ([10]; 250 g ai/ha): 95 | phytotoxicity rating RICE ([11]; 63 g ai/ha): 100 | phytotoxicity rating RICE ([11]; 250 g ai/ha): 100 | Post-emerge Herbicidal Activity ECHCG (phytotoxicity rating) ([12]; 63 g ai/ha): 50 | Post-emerge Herbicidal Activity ECHCG (phytotoxicity rating) ([12]; 250 g ai/ha): 99 | Post-emerge Herbicidal Activity SETVI (phytotoxicity rating) ([13]; 63 g ai/ha): 40 | Post-emerge Herbicidal Activity SETVI (phytotoxicity rating) ([13]; 250 g ai/ha): 90 | Post-emerge Herbicidal Activity IPOHE (phytotoxicity rating) ([14]; 63 g ai/ha): 100 | Post-emerge Herbicidal Activity IPOHE (phytotoxicity rating) ([14]; 250 g ai/ha): 100 | Post-emerge Herbicidal Activity SORHA (phytotoxicity rating) ([15]; 63 g ai/ha): 20 | Post-emerge Herbicidal Activity SORHA (phytotoxicity rating) ([15]; 250 g ai/ha): 95 | Post-emerge Herbicidal Activity DIGSA (phytotoxicity rating) ([16]; 63 g ai/ha): 40 | Post-emerge Herbicidal Activity DIGSA (phytotoxicity rating) ([16]; 250 g ai/ha): 99 | Post-emerge Herbicidal Activity AMARE (phytotoxicity rating) [17, 22]: 90 | Post-emerge Herbicidal Activity AMARE (phytotoxicity rating) [17, 23]: 100 | Post-emerge Herbicidal Activity CASOB (phytotoxicity rating) ([18]; 63 g ai/ha): 80 | Post-emerge Herbicidal Activity CASOB (phytotoxicity rating) ([18]; 250 g ai/ha): 100 | Post-emerge Herbicidal Activity ABUTH (phytotoxicity rating) ([19]; 63 g ai/ha): 100 | Post-emerge Herbicidal Activity ABUTH (phytotoxicity rating) ([19]; 250 g ai/ha): 100 | Post-emerge Herbicidal Activity CORN (crop damage rating) ([20]; 63 g ai/ha): 35 | Post-emerge Herbicidal Activity CORN (crop damage rating) ([20]; 250 g ai/ha): 80 | Post-emerge Herbicidal Activity RICE (crop damage rating) ([21]; 63 g ai/ha): 75 | Post-emerge Herbicidal Activity RICE (crop damage rating) ([21]; 250 g ai/ha): 90

— patent publication US6355799B1, “Substituted benzene compounds, process for their preparation, and herbicidal and defoliant compositions containing them” (ISK Americas Incorporated, priority 1997, dated 2002)
